Assay in all cases: Eurofins kinase panel
Common to all, as to type: biochemical
Holding throughout (details): read-out: Inhibition rate (%)

The target of experiment [1] is T1, Src(1-530)(h) (Homo sapiens, UniProt P12931).
T1 construct: purchased Eurofins (KinaseProfiler)

For experiment [2], the target named is T2, PKD3(h) (Homo sapiens, UniProt O94806).
T2 construct: purchased Eurofins (KinaseProfiler)
T2 sequence (O94806 1-890): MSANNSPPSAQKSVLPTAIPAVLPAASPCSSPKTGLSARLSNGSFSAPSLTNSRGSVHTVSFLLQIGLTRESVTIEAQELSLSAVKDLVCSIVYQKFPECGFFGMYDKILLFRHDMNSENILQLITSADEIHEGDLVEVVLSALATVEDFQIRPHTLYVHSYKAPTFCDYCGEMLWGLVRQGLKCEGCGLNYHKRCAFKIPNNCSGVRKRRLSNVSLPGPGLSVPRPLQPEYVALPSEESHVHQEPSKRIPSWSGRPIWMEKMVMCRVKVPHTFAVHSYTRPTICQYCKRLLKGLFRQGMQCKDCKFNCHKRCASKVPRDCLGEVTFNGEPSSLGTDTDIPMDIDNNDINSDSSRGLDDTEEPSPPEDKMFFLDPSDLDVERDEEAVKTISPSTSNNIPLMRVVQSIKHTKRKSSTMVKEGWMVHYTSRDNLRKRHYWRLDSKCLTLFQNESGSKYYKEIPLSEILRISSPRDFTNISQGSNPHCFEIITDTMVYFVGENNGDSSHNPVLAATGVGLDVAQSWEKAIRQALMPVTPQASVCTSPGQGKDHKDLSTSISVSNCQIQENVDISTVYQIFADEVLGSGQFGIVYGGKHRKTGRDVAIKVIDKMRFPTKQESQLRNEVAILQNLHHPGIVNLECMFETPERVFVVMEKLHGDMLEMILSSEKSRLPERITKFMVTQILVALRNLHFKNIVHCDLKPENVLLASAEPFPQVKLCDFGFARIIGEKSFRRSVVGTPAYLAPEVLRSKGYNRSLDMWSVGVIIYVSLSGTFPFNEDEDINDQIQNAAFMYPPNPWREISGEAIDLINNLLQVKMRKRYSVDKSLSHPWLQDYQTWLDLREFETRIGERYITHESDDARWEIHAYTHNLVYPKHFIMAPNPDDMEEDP

Experiment [3] has as its target T3, TRB2(h) (Homo sapiens, UniProt Q92519).
T3 construct: purchased Eurofins (KinaseProfiler)
T3 sequence (Q92519 1-343): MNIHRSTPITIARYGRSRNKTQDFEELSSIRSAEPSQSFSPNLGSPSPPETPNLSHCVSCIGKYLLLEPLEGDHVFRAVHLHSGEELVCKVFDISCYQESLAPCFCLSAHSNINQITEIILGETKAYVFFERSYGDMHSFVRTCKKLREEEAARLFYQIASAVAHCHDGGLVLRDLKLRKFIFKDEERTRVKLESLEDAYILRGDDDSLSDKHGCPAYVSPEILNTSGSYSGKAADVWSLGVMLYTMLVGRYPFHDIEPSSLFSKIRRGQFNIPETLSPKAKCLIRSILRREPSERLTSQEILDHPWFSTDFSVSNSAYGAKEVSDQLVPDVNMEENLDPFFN

Experiment [4] has as its target T4, PDGFRα(V561D)(h) (Homo sapiens, UniProt P16234, V561D).
T4 construct: purchased Eurofins (KinaseProfiler)

For experiment [5], the target named is T5, Plk4(h) (Homo sapiens, UniProt O00444).
T5 construct: purchased Eurofins (KinaseProfiler)
T5 sequence (O00444 1-970): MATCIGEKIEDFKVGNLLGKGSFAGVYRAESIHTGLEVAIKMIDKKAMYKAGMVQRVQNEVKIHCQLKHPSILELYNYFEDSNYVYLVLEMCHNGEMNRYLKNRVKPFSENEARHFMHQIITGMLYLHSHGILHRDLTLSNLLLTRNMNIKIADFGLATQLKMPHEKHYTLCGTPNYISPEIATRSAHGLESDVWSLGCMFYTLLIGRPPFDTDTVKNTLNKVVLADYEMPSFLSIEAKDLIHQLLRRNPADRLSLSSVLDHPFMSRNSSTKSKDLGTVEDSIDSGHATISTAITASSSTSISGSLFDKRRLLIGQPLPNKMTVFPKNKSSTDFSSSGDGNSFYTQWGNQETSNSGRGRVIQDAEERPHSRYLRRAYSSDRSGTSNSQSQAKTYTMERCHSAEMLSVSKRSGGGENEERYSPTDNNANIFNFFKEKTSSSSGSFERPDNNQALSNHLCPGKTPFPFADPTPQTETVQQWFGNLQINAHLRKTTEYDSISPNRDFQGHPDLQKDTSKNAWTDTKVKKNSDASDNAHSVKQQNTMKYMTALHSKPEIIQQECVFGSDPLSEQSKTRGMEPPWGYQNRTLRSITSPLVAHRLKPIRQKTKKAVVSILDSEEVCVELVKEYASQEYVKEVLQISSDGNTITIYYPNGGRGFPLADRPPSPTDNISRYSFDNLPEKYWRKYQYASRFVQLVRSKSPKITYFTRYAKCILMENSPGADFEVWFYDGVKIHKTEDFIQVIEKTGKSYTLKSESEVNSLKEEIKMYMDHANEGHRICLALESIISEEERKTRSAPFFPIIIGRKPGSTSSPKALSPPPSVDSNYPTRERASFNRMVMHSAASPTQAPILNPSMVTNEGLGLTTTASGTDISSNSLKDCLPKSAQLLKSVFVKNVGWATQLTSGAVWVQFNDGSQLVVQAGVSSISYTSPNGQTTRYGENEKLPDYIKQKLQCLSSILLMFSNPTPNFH

The target of experiment [6] is T6, PAK2(h) (Homo sapiens, UniProt Q13177).
T6 construct: purchased Eurofins (KinaseProfiler)

Experiment [7] deals with T7, PKCβI(h) (Homo sapiens, UniProt P05771).
T7 construct: purchased Eurofins (KinaseProfiler)

The inhibition is the relative decrease from the control value, in per cent.

T6 sequence (Q13177 whole entry): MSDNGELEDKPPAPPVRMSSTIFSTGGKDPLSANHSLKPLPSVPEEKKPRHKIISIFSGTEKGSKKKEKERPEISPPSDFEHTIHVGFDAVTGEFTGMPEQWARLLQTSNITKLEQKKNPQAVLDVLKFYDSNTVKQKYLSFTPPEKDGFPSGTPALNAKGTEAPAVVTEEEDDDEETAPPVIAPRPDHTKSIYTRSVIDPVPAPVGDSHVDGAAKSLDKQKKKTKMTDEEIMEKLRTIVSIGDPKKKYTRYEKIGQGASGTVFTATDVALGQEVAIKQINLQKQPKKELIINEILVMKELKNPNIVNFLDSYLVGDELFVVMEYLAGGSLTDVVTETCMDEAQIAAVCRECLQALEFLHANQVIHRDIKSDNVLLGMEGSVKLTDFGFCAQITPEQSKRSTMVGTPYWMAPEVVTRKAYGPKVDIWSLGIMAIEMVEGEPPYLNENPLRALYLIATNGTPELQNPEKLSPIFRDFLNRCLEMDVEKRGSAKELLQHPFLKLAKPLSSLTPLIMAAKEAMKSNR
T4 sequence (P16234 24-1089 V561D): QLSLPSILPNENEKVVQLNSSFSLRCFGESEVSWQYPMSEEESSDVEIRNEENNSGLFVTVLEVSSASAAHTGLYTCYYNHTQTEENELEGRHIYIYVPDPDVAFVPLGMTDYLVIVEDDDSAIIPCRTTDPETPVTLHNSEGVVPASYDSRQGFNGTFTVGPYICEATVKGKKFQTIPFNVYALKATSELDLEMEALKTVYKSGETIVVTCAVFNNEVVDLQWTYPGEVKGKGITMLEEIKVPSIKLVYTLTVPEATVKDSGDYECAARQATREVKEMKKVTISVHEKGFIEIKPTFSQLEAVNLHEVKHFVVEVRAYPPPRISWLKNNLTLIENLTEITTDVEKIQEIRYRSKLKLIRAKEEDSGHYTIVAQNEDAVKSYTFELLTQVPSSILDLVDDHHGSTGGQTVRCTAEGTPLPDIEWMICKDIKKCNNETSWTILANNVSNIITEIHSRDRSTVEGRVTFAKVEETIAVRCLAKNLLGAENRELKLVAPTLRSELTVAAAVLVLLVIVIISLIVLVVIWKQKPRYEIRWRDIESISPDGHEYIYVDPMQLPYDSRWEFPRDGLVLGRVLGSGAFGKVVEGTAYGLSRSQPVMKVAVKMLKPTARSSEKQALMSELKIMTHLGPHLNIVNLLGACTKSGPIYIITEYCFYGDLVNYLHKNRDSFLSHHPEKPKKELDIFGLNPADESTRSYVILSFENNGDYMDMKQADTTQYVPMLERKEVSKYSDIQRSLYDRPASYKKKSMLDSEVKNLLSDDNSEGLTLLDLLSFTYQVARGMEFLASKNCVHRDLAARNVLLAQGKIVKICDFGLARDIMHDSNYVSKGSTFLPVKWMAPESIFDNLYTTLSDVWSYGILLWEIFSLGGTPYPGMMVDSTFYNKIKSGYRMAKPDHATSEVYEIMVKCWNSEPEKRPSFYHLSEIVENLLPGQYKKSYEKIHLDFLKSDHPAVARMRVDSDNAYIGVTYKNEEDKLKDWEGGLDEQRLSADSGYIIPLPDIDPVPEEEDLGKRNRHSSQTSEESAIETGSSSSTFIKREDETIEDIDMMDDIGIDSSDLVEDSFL
T7 sequence (P05771 whole entry): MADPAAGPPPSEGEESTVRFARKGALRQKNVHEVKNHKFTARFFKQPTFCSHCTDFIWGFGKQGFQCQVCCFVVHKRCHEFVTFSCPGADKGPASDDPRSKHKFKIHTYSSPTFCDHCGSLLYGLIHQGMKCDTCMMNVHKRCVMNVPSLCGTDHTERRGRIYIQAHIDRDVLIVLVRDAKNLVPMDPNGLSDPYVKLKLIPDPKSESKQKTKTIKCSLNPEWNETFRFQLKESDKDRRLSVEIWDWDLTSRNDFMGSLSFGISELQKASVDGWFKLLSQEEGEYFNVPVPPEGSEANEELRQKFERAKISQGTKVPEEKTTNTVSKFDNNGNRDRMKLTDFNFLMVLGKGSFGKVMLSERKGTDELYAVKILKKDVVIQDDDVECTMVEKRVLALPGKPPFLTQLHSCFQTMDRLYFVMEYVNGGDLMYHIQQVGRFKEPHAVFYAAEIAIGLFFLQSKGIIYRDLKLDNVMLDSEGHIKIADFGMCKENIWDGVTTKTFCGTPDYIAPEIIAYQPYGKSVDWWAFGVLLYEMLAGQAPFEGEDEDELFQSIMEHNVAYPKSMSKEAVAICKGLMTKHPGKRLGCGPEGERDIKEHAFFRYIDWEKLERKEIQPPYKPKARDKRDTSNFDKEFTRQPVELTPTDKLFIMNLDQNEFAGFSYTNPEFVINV
T1 sequence (P12931 1-530 limits assumed): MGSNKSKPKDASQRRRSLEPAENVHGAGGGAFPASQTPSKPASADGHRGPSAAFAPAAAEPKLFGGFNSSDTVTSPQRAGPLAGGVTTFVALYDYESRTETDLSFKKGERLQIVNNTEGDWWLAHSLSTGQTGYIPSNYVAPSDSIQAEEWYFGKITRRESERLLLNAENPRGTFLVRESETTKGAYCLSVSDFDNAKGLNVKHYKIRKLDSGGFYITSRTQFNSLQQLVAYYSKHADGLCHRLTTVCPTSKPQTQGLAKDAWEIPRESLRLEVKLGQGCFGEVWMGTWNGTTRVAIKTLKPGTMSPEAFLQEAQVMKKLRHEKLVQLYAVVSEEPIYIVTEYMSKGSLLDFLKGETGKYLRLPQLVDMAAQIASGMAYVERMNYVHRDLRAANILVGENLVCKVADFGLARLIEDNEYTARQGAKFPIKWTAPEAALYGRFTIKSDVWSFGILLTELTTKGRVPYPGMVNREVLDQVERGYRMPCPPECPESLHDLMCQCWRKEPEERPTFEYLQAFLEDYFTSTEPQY

With `COc1cc(OC)c(Cl)c(-c2ccc3c(NC(=O)c4ccc(N5CCNC(C)(C)C5)cc4)n[nH]c3n2)c1Cl` [3D185], the inhibition at 0.01 µM was 4% in experiment [1] (10 nM); -3% in experiment [2] (10 nM); -3% in experiment [3] (10 nM); 5% in experiment [4] (10 nM); -18% in experiment [5] (10 nM); 5% in experiment [6] (10 nM). For the same compound, in experiment [7] (10 nM), the inhibition at 0.01 µM is -7%. In addition, the inhibition at 0.1 µM in experiment [1] (100 nM) is 30%; in experiment [2] (100 nM) it was -2%; in experiment [3] (100 nM), -7%; in experiment [4] (100 nM), 23%; in experiment [5] (100 nM), -20%; in experiment [6] (100 nM) it was -5%. Besides, the inhibition at 0.1 µM in experiment [7] (100 nM) is -3%. Further, the inhibition at 1 µM in experiment [1] (1000 nM) was 82%; in experiment [2] (1000 nM), 11%; in experiment [3] (1000 nM) it was -4%; in experiment [4] (1000 nM), 57%; in experiment [5] (1000 nM) it was -17%; in experiment [6] (1000 nM) it was -5%. Besides, the inhibition at 1 µM in experiment [7] (1000 nM) is -1%.

Source of the values: PMC6704710, “Preclinical evaluation of 3D185, a novel potent inhibitor of FGFR1/2/3 and CSF-1R, in FGFR-dependent and macrophage-dominant cancer models” (Journal of Experimental & Clinical Cancer Research : CR, 2019).
